Consider 17 molecules from US10703748B2, “Diazanaphthalen-3-yl carboxamides and preparation and use thereof” (Samumed, LLC, priority 2017, dated 2020).

One assay relates to IL-6. In words: IL-6 inhibition in LPS-stimulated human peripheral blood mononuclear cells (HTRF). Conditions: Homo sapiens, PBMC; for EC50: 22 h; for inhibition at 10 µM: read-out: percentage in parentheses after EC50 >10. (In general: TR-FRET usually uses a lanthanide donor and a delayed reading to cut background.)
For assay [1], the system named is secreted cytokines TNFα, IL-6 and KC-GRO. In words: Secreted cytokines in Lipopolysaccharide-stimulated BV-2 cells (Table 9 does not say which cytokine). It counts as cell-based, mouse. Conditions: Mus musculus, BV-2, 5 h; read-out: EC50.
Experimental: BV-2 cells (mouse microglial cells) were cultured in 1:1 DMEM medium supplemented with 10% FBS, and 1% penicillin/streptomycin.
BV-2 cells are plated at 35,000 cells/well in a volume of 100 μl for at least 4 hours before compounds are added. […] Compounds were added to cells overnight. […] Supernatant is removed and saved for further cytokine detection. The original plates with seeded cells were tested for cytotoxicity by measure of adenosine triphosphate (ATP) release by adding CellTiter-Glo® diluted 1:4 in distilled water (G7573, Promega) and transferring lysed cells to a completely black 96-well plate to be read with the Cytation3. Supernatant was then diluted 1:2 with a diluent from V-PLEX cytokine Kit and directly tested for the secreted cytokines TNFα, IL-6 and KC-GRO using electrochemiluminescence (Meso Scale Discovery). The standard curve for each cytokine was used to convert the electrochemiluminescent signal into pg of protein per mL.
Assay [2] has as its system α-smooth muscle actin (aSMA) positive LL29 cells. Briefly: Inhibition of the fibrotic process: αSMA staining in TGF-β1 treated LL29 fibroblasts from IPF patients. Conditions: Homo sapiens, Fibroblast; for EC50: 96 h.
Experimental: Each compound was dissolved in DMSO as a 10 mM stock and used to prepare compound source plates. […] LL29 cells were plated at 1,500 cells/well in 70 μL/well F12 medium supplemented with 1% Fetal Bovine Serum. […] Wells treated with TGF-β1 and containing DMSO were used as positive control, and cells with only DMSO were negative control. Cells were incubated at 37° C. and 5% CO2 for 4 days. Following incubation for 4 days, SYTOX green nucleic acid stain (Life Technologies [Thermo Fisher Scientific]) was added to the wells at a final concentration of 1 μM and incubated at room temperature for 30 min. Cells were then fixed using 4% formaldehyde (Electron Microscopy Sciences), washed 3 times with PBS followed by blocking and permeabilization using 3% Bovine Serum Albumin (BSA; Sigma) and 0.3% Triton X-100 (Sigma) in PBS.
The target of the next assay is GSK3β kinase (Homo sapiens, UniProt P49841). Briefly: GSK3β kinase activity (Ser/Thr 09 peptide Z-lyte FRET assay). It counts as biochemical. The note with it: recombinant kinase, 46 μM ATP, one hour at room temperature; read-out: EC50.
Another assay deals with DYRK1A kinase (Homo sapiens, UniProt Q13627). In words: DYRK1A kinase activity (Ser/Thr 18 peptide Z-lyte FRET assay).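 Note: kinase activity read as coumarin/fluorescein emission ratio after development step, with unphosphorylated and phosphorylated peptide forms setting 0% and 100% controls, values from dose-response curves.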 The note with it: recombinant DYRK1A, 30 μM ATP, one hour at room temperature. Type of assay: biochemical.
The test system of assay [3] is Wnt-responsive Sp5-Luc reporter in SW480 colon carcinoma cells. In words: Screening assay for Wnt activity (Sp5-Luc reporter gene assay). The note with it: Homo sapiens; for EC50: SW480; for inhibition at 10 µM: SW480, read-out: percent inhibition at 10 μM.
Assay [4] deals with SW480 colon carcinoma cells. In words: Cell viability assay (CellTiter-Glo). The note with it: Homo sapiens; for EC50: SW480, 96 h; for inhibition at 10 µM: SW480, read-out: percent inhibition at 10 μM. In general terms: In ATP-based viability assays light output follows the ATP content of the culture.

Sequence of GSK3β kinase (P49841 whole entry): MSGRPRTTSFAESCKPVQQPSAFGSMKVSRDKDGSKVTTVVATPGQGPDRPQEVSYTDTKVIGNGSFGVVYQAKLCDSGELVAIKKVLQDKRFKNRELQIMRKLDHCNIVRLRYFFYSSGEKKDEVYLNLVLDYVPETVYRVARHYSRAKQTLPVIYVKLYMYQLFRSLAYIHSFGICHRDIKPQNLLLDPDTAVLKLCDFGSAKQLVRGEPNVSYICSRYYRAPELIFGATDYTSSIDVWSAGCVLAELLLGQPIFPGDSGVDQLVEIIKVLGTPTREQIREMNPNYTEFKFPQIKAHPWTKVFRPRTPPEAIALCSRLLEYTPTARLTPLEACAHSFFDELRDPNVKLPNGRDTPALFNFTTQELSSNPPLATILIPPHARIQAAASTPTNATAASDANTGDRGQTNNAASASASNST

As to `CN1CCN(Cc2cccc(C(=O)Nc3cc4nc(-c5cnn(C)c5)ccc4cn3)c2)CC1` [Compound 172, N-(2-(1-Methyl-1H-pyrazol-4-yl)-1,6-naphthyridin-7-yl)-3-((4-methylpiperazin-1-yl)methyl)benzamide], the half-maximal effective concentration (EC50) in the assay on IL-6 was over 10000 nM; in assay [1], 214 nM; in assay [2], 393 nM; on GSK3β kinase, 765 nM; on DYRK1A kinase, 13 nM; in assay [3], 445 nM. In addition, in assay [4], the EC50 turned out to be 1010 nM. Besides, in the assay on IL-6, the inhibition at 10 µM came to 32.7%.

`CN1CCc2ccc(C(=O)Nc3cc4nc(-c5cnn(C)c5)ccc4cn3)cc2C1` [Compound 202, 2-Methyl-N-(2-(1-methyl-1H-pyrazol-4-yl)-1,6-naphthyridin-7-yl)-1,2,3,4-tetrahydroisoquinoline-7-carboxamide]: the half-maximal effective concentration (EC50) with IL-6 was over 10000 nM; in assay [1], 300 nM; in assay [2], 530 nM; on GSK3β kinase, over 10000 nM; at DYRK1A kinase it was 9 nM; in assay [3], 686 nM. Further, in assay [4], a half-maximal response (EC50) required 9310 nM. For the same molecule, the inhibition at 10 µM in the assay with IL-6 is 5.1%.

Regarding `Cn1cc(-c2ccc3cnc(NC(=O)c4ccc5ccoc5c4)cc3n2)cn1` [Compound 209, N-(2-(1-Methyl-1H-pyrazol-4-yl)-1,6-naphthyridin-7-yl)benzofuran-6-carboxamide], the EC50 with IL-6 was over 10000 nM; in assay [1] it was 864 nM; in assay [2], 436 nM; on GSK3β kinase, over 10000 nM; on DYRK1A kinase, 5 nM; in assay [3], 485 nM. The midpoint of the response in assay [4], the EC50, lay at 3150 nM. Moreover, the inhibition at 10 µM with IL-6 was 3.1%.

On to `Cn1cc(-c2ccc3cnc(NC(=O)c4ccc5nccnc5c4)cc3n2)cn1` [Compound 216, N-(2-(1-Methyl-1H-pyrazol-4-yl)-1,6-naphthyridin-7-yl)quinoxaline-6-carboxamide], for which the EC50 in the assay on IL-6 is over 10000 nM; in assay [1], 378 nM; in assay [2], 598 nM; on GSK3β kinase, 4850 nM; on DYRK1A kinase, 7 nM; in assay [3], 447 nM. For the same molecule, the half-maximal effective concentration (EC50) in assay [4] came to 3160 nM. Besides, the inhibition at 10 µM in the assay on IL-6 came to 0%.

In the case of `Cn1cc(-c2ccc3cnc(NC(=O)c4cnn(C5CCNCC5)c4)cc3n2)cn1` [Compound 228, N-(2-(1-Methyl-1H-pyrazol-4-yl)-1,6-naphthyridin-7-yl)-1-(piperidin-4-yl)-1H-pyrazole-4-carboxamide], the EC50 in the assay on IL-6 turned out to be 723 nM; in assay [1] it was 207 nM; in assay [2], 376 nM; on GSK3β kinase, 753 nM; on DYRK1A kinase, 6 nM; in assay [3], 76 nM. Moreover, the EC50 in assay [4] turned out to be 105 nM.

On to `CN1CCC(n2cc(C(=O)Nc3cc4nc(-c5cnn(C)c5)ccc4cn3)cn2)CC1` [Compound 229, N-(2-(1-Methyl-1H-pyrazol-4-yl)-1,6-naphthyridin-7-yl)-1-(1-methylpiperidin-4-yl)-1H-pyrazole-4-carboxamide], for which the EC50 in the assay on IL-6 is 859 nM; in assay [1] it was 62 nM; in assay [2], 318 nM; on GSK3β kinase, 2900 nM; at DYRK1A kinase it was 11 nM; in assay [3] it was 90 nM. The EC50 in assay [4] is 122 nM.

For `CC(C)OC(=O)N1CCC(n2cc(C(=O)Nc3cc4nc(-c5cnn(C)c5)ccc4cn3)cn2)CC1` [Compound 234, Isopropyl 4-(4-((2-(1-methyl-1H-pyrazol-4-yl)-1,6-naphthyridin-7-yl)carbamoyl)-1H-pyrazol-1-yl)piperidine-1-carboxylate], the EC50 worked out at 1890 nM in the assay on IL-6; 26 nM in assay [1]; 329 nM in assay [2]; 2250 nM on GSK3β kinase; 4 nM on DYRK1A kinase; 124 nM in assay [3]. The same molecule gave an EC50 in assay [4] of 229 nM.

For `Cn1ncc(-c2ccc3cnc(NC(=O)c4ccnc(N5CCOCC5)c4)cc3n2)c1CN1CCOCC1` [Compound 314, N-(2-(1-Methyl-5-(morpholinomethyl)-1H-pyrazol-4-yl)-1,6-naphthyridin-7-yl)-2-morpholinoisonicotinamide], the EC50 in the assay on IL-6 was over 10000 nM; in assay [1] it was 138 nM; in assay [2], 989 nM; at GSK3β kinase it was 2610 nM; on DYRK1A kinase, 8 nM; in assay [3], 368 nM. Further, the EC50 in assay [4] came out at 441 nM. In addition, in the assay with IL-6, the inhibition at 10 µM is 47.6%.

Turning to `CN(C)C1CCN(c2cc(C(=O)Nc3cc4nc(-c5cn(C)nn5)ccc4cn3)ccn2)CC1` [Compound 376, 2-(4-(Dimethylamino)piperidin-1-yl)-N-(2-(1-methyl-1H-1,2,3-triazol-4-yl)-1,6-naphthyridin-7-yl)isonicotinamide], the EC50 with IL-6 worked out at 7960 nM; in assay [1], 1700 nM; in assay [2], 3480 nM; on GSK3β kinase it was 665 nM; on DYRK1A kinase it was 19 nM; in assay [3], 3420 nM. In assay [4], the EC50 was found to be 1510 nM.

With `CN1CCCN(c2cc(C(=O)Nc3cc4nc(-c5cn(C)nn5)ccc4cn3)ccn2)CC1` [Compound 379, 2-(4-Methyl-1,4-diazepan-1-yl)-N-(2-(1-methyl-1H-1,2,3-triazol-4-yl)-1,6-naphthyridin-7-yl)isonicotinamide], the EC50 worked out at 2080 nM with IL-6; 734 nM in assay [1]; 2140 nM in assay [2]; 359 nM at GSK3β kinase; 11 nM on DYRK1A kinase; 1600 nM in assay [3]. This molecule also returned an EC50 in assay [4] of 1340 nM.

Take `CC(C)OCCC(=O)Nc1cc2nc(-c3cncn3C)ccc2cn1` [Compound 416, 3-Isopropoxy-N-(2-(1-methyl-1H-imidazol-5-yl)-1,6-naphthyridin-7-yl) propanamide]: the EC50 was 5760 nM with IL-6; 3300 nM in assay [1]; 355 nM in assay [2]; 49 nM on GSK3β kinase; 31 nM on DYRK1A kinase; 386 nM in assay [3]. In addition, the EC50 in assay [4] was over 10000 nM. For the same molecule, the inhibition at 10 µM in assay [4] is 52.1%.

On to `CC(F)(F)CN1CCC(C(=O)Nc2cc3nc(-c4cnco4)ccc3cn2)CC1` [Compound 540, 1-(2,2-Difluoropropyl)-N-(2-(oxazol-5-yl)-1,6-naphthyridin-7-yl)piperidine-4-carboxamide], for which the EC50 in the assay on IL-6 was over 10000 nM; in assay [1], at least 10000 nM; in assay [2] it was over 10000 nM; at GSK3β kinase it was 644 nM; on DYRK1A kinase it was 22 nM; in assay [3] it was over 10000 nM. The molecule further yielded an EC50 in assay [4] of over 10000 nM. Moreover, the inhibition at 10 µM in the assay with IL-6 was 3.9%; in assay [2] (read-out: percentage in parentheses after EC50 >10) it was 50%; in assay [3], 11.8%; in assay [4] it was 5.3%.

`O=C(Nc1cc2nc(-c3cnco3)ccc2cn1)c1ccncc1` [Compound 592, N-(2-(Oxazol-5-yl)-1,6-naphthyridin-7-yl)isonicotinamide]: the EC50 with IL-6 was over 10000 nM; in assay [1], 449 nM; in assay [2], 9 nM; at GSK3β kinase, over 10000 nM; on DYRK1A kinase, 29 nM; in assay [3] it was over 10000 nM. This molecule gave an EC50 in assay [4] of over 10000 nM. Moreover, the inhibition at 10 µM was found to be 25.3% in the assay with IL-6, 5% in assay [3] and 11.7% in assay [4].

For the molecule `O=C(Nc1cc2nc(-c3cncs3)ccc2cn1)c1ccc(OC2CCNCC2)cc1` [Compound 624, 4-(Piperidin-4-yloxy)-N-(2-(thiazol-5-yl)-1,6-naphthyridin-7-yl)benzamide], the EC50 with IL-6 is 3080 nM; in assay [1] it was 8800 nM; in assay [2], 491 nM; on GSK3β kinase, 2930 nM; at DYRK1A kinase, 3 nM; in assay [3], 750 nM. The molecule also came in with an EC50 in assay [4] of 694 nM.

Regarding `O=C(Nc1cc2nc(-c3cncs3)ccc2cn1)c1ccncc1` [Compound 625, N-(2-(Thiazol-5-yl)-1,6-naphthyridin-7-yl)isonicotinamide], the EC50 was over 10000 nM in the assay with IL-6; 130 nM in assay [1]; 3010 nM in assay [2]; 8260 nM at GSK3β kinase; 4 nM at DYRK1A kinase; 964 nM in assay [3]. The EC50 in assay [4] is over 10000 nM. Moreover, the inhibition at 10 µM with IL-6 is 6.5%; in assay [4] it was 47.8%.

Consider `Cc1ncc(-c2ccc3cnc(NC(=O)c4ccncc4)cc3n2)s1` [Compound 641, N-(2-(2-Methylthiazol-5-yl)-1,6-naphthyridin-7-yl)isonicotinamide], for which the EC50 in the assay on IL-6 was over 10000 nM; in assay [1] it was 433 nM; in assay [2] it was 347 nM; on GSK3β kinase, 2560 nM; on DYRK1A kinase, 8 nM; in assay [3] it was 977 nM. Besides, a half-maximal effect in assay [4] (EC50) was put at 1680 nM. Besides, the inhibition at 10 µM in the assay with IL-6 was 16.4%.

With `Cc1ncc(-c2ccc3cnc(NC(=O)c4cccnc4)cc3n2)s1` [Compound 642, N-(2-(2-Methylthiazol-5-yl)-1,6-naphthyridin-7-yl)nicotinamide], the EC50 with IL-6 was over 10000 nM; in assay [1], 1300 nM; in assay [2], 988 nM; at GSK3β kinase, 3060 nM; on DYRK1A kinase, 6 nM; in assay [3] it was 869 nM. The molecule also gave an EC50 in assay [4] of 1030 nM. The inhibition at 10 µM in the assay on IL-6 was 22.4%.

By EC50 is commonly meant the concentration giving half of the maximal effect.
